From paper PMC6364417, “Kinase inhibitor library screening identifies synergistic drug combinations effective in sensitive and resistant melanoma cells” (Journal of Experimental & Clinical Cancer Research : CR, 2019)

Columns and labels:
Assay in all cases: Kinase inhibitor library screening, PrestoBlue cell viability, 1 or 10 μM, 72 h
501Mel cells (parental) = settings: 501Mel Parental
Procedure, shortened: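 Each compound was applied to parental melanoma cells and to derivatives made resistant to Vemurafenib or Dabrafenib. After treatment, viability was read with PrestoBlue on a plate reader and expressed as % of untreated cells, with each line run at least in duplicate.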

[1] = test system: 501Mel-GP cells (Dabrafenib-resistant); settings: 501Mel GP
[2] = test system: 501Mel-XP cells (Vemurafenib-resistant); settings: 501Mel XP
A375 cells (parental) = settings: A375 Parental
[3] = test system: A375-GP cells (Dabrafenib-resistant); settings: A375 GP
[4] = test system: A375-XP cells (Vemurafenib-resistant); settings: A375 XP
IGR37 cells (parental) = settings: IGR37 Parental
[5] = test system: IGR37-GP cells (Dabrafenib-resistant); settings: IGR37 GP
[6] = test system: IGR37-XP cells (Vemurafenib-resistant); settings: IGR37 XP

For `Cc1cc2c(F)c(Oc3ncnn4cc(OC[C@@H](C)O)c(C)c34)ccc2[nH]1` [Brivanib (BMS-540215)], the “cell viability (kinase inhibitor library screening)” value (501Mel cells (parental); 1μΜ, in %) was 104.3, the “cell viability (kinase inhibitor library screening)” value (501Mel cells (parental); 10μΜ, in %) was 93.4 and the “cell viability (kinase inhibitor library screening)” value ([1]; 1μΜ, in %) was 106.3. The “cell viability (kinase inhibitor library screening)” value ([1]; 10μΜ, in %) was 89.6, the “cell viability (kinase inhibitor library screening)” value ([2]; 1μΜ, in %) was 100.3 and the “cell viability (kinase inhibitor library screening)” value ([2]; 10μΜ, in %) was 80.7. The “cell viability (kinase inhibitor library screening)” value (A375 cells (parental); 1μΜ, in %) was 105.2, the “cell viability (kinase inhibitor library screening)” value (A375 cells (parental); 10μΜ, in %) was 84.3 and the “cell viability (kinase inhibitor library screening)” value ([3]; 1μΜ, in %) was 103.4. The “cell viability (kinase inhibitor library screening)” value ([3]; 10μΜ, in %) was 79.9, the “cell viability (kinase inhibitor library screening)” value ([4]; 1μΜ, in %) was 104.1 and the “cell viability (kinase inhibitor library screening)” value ([4]; 10μΜ, in %) was 89.7. The “cell viability (kinase inhibitor library screening)” value (IGR37 cells (parental); 10μΜ, in %) was 99.8, the “cell viability (kinase inhibitor library screening)” value ([5]; 10μΜ, in %) was 95.2 and the “cell viability (kinase inhibitor library screening)” value ([6]; 1μΜ, in %) was 107.9. The “cell viability (kinase inhibitor library screening)” value ([6]; 10μΜ, in %) was 73.1.

In the case of `Cn1cc(-c2ccc3nnc(C(F)(F)c4ccc5ncccc5c4)n3n2)cn1` [JNJ-38877605], the “cell viability (kinase inhibitor library screening)” value (501Mel cells (parental); 1μΜ, 72 h) is reported as 97.8%, the “cell viability (kinase inhibitor library screening)” value (501Mel cells (parental); 10μΜ, 72 h) is reported as 86.4% and the “cell viability (kinase inhibitor library screening)” value ([1]; 1μΜ, 72 h) is reported as 86.8%. For the same compound, the “cell viability (kinase inhibitor library screening)” value ([1]; 10μΜ, 72 h) was 64.7%, the “cell viability (kinase inhibitor library screening)” value ([2]; 1μΜ, 72 h) was 70.9% and the “cell viability (kinase inhibitor library screening)” value ([2]; 10μΜ, 72 h) was 57.1%. The “cell viability (kinase inhibitor library screening)” value (A375 cells (parental); 10μΜ, 72 h) was 97.6%, the “cell viability (kinase inhibitor library screening)” value (A375 cells (parental); 1μΜ, 72 h) was 99.7% and the “cell viability (kinase inhibitor library screening)” value ([3]; 10μΜ, 72 h) was 97.0%. For the same compound, the “cell viability (kinase inhibitor library screening)” value ([4]; 1μΜ, 72 h) was 105.2%, the “cell viability (kinase inhibitor library screening)” value ([4]; 10μΜ, 72 h) was 100.0% and the “cell viability (kinase inhibitor library screening)” value (IGR37 cells (parental); 1μΜ, 72 h) was 106.0%. The “cell viability (kinase inhibitor library screening)” value (IGR37 cells (parental); 10μΜ, 72 h) was 87.1%, the “cell viability (kinase inhibitor library screening)” value ([5]; 1μΜ, 72 h) was 102.6% and the “cell viability (kinase inhibitor library screening)” value ([5]; 10μΜ, 72 h) was 87.5%. The “cell viability (kinase inhibitor library screening)” value ([6]; 1μΜ, 72 h) was 96.1% and the “cell viability (kinase inhibitor library screening)” value ([6]; 10μΜ, 72 h) was 62.2%.

In the case of `Cc1cc(Nc2cc(N3CCN(C)CC3)nc(Sc3ccc(NC(=O)C4CC4)cc3)n2)n[nH]1` [VX-680 (MK-0457, Tozasertib)], the “cell viability (kinase inhibitor library screening)” value (501Mel cells (parental); 1μΜ, 72 h) is reported as 85.5%, the “cell viability (kinase inhibitor library screening)” value (501Mel cells (parental); 10μΜ, 72 h) is reported as 48.7% and the “cell viability (kinase inhibitor library screening)” value ([1]; 1μΜ, 72 h) is reported as 85.8%. The “cell viability (kinase inhibitor library screening)” value ([1]; 10μΜ, 72 h) was 48.3%, the “cell viability (kinase inhibitor library screening)” value ([2]; 1μΜ, 72 h) was 74.1% and the “cell viability (kinase inhibitor library screening)” value ([2]; 10μΜ, 72 h) was 26.8%. The “cell viability (kinase inhibitor library screening)” value (A375 cells (parental); 10μΜ, 72 h) was 26.3%, the “cell viability (kinase inhibitor library screening)” value (A375 cells (parental); 1μΜ, 72 h) was 47.5% and the “cell viability (kinase inhibitor library screening)” value ([3]; 1μΜ, 72 h) was 45.1%. For the same compound, the “cell viability (kinase inhibitor library screening)” value ([3]; 10μΜ, 72 h) was 30.5%, the “cell viability (kinase inhibitor library screening)” value ([4]; 1μΜ, 72 h) was 56.4% and the “cell viability (kinase inhibitor library screening)” value ([4]; 10μΜ, 72 h) was 35.5%. The “cell viability (kinase inhibitor library screening)” value (IGR37 cells (parental); 1μΜ, 72 h) was 89.0%, the “cell viability (kinase inhibitor library screening)” value (IGR37 cells (parental); 10μΜ, 72 h) was 63.5% and the “cell viability (kinase inhibitor library screening)” value ([5]; 1μΜ, 72 h) was 94.7%. The “cell viability (kinase inhibitor library screening)” value ([5]; 10μΜ, 72 h) was 11.6% and the “cell viability (kinase inhibitor library screening)” value ([6]; 10μΜ, 72 h) was 3.9%.

In the case of `CNC(=O)c1ccccc1Nc1nc(Nc2ccc(N3CCOCC3)cc2OC)ncc1Cl` [NVP-TAE226], the “cell viability, 501Mel Parental, 1μΜ” value (501Mel cells (parental); 1μΜ, 72 h, in %) is reported as 69.2, the “cell viability, 501Mel Parental, 10μΜ” value (501Mel cells (parental); 10μΜ, 72 h, in %) is reported as 38.3 and the “cell viability, 501Mel GP, 1μΜ” value ([1]; 1μΜ, 72 h, in %) is reported as 72.0. For the same compound, the “cell viability, 501Mel GP, 10μΜ” value ([1]; 10μΜ, 72 h, in %) was 34.3, the “cell viability, 501Mel XP, 1μΜ” value ([2]; 1μΜ, 72 h, in %) was 67.5 and the “cell viability, 501Mel XP, 10μΜ” value ([2]; 10μΜ, 72 h, in %) was 20.7. The “cell viability, A375 Parental, 1μΜ” value (A375 cells (parental); 1μΜ, 72 h, in %) was 51.1, the “cell viability, A375 Parental, 10μΜ” value (A375 cells (parental); 10μΜ, 72 h, in %) was 12.7 and the “cell viability, A375 GP, 1μΜ” value ([3]; 1μΜ, 72 h, in %) was 41.6. The “cell viability, A375 GP, 10μΜ” value ([3]; 10μΜ, 72 h, in %) was 16.3, the “cell viability, A375 XP, 1μΜ” value ([4]; 1μΜ, 72 h, in %) was 52.4 and the “cell viability, A375 XP, 10μΜ” value ([4]; 10μΜ, 72 h, in %) was 21.6. For the same compound, the “cell viability, IGR37 Parental, 1μΜ” value (IGR37 cells (parental); 1μΜ, 72 h, in %) was 82.8, the “cell viability, IGR37 Parental, 10μΜ” value (IGR37 cells (parental); 10μΜ, 72 h, in %) was 36.2 and the cell viability, IGR37 GP, 10μΜ ([5]; 10μΜ, 72 h) was 3.7%. The “cell viability, IGR37 GP, 1μΜ” value ([5]; 1μΜ, 72 h, in %) was 59.0, the cell viability, IGR37 XP, 10μΜ ([6]; 10μΜ, 72 h) was 1.5% and the “cell viability, IGR37 XP, 1μΜ” value ([6]; 1μΜ, 72 h, in %) was 34.8.
